Read-outs that look alike come from different tables or passages of the source.
How the values were obtained:
[1] = molecular target: T1, IRAK4 (Homo sapiens (Human), UniProt Q9NWZ3); test: IRAK4 Biochemical HTRF Kinase Assay; details: read-out: IRAK4 HTRF biochemical: IC50
Method: IRAK4 Biochemical HTRF Kinase Assay
The binding capacities of certain bifunctional compounds of Formula (I) were determined using the CisBio HTRF KinEASE STK S1 Kit (#62ST1PEB, contains 5× Kinase buffer, 1× Detection Buffer, anti-phospho-serine/threonine-cryptate, Streptavidin-XL665, and STK-S1), which measures the phosphorylation of a biotinylated peptide substrate by IRAK4, according to the manufacturer's protocol. […] 2 μl of a reaction solution containing 5 μM STK-S1, 10 mM ATP, and 10 mM MgCl2 were added to each well to a final volume of 10 μl. Assay controls include wells containing kinase with no compound (DMSO only) and wells containing no kinase and no compound (DMSO only). The reactions were allowed to proceed at ambient temperature for 90 minutes. […] The plates were incubated for 60 minutes at ambient temperature and then read on an Envision Multilabel Reader (PerkinElmer). […] For IC50 determination, the compounds were tested at sixteen concentrations in duplicate and curve-fitting was performed by non-linear regression analysis using GraphPad Priam.
Target sequence in this assay (Q9NWZ3 whole entry, species assumed): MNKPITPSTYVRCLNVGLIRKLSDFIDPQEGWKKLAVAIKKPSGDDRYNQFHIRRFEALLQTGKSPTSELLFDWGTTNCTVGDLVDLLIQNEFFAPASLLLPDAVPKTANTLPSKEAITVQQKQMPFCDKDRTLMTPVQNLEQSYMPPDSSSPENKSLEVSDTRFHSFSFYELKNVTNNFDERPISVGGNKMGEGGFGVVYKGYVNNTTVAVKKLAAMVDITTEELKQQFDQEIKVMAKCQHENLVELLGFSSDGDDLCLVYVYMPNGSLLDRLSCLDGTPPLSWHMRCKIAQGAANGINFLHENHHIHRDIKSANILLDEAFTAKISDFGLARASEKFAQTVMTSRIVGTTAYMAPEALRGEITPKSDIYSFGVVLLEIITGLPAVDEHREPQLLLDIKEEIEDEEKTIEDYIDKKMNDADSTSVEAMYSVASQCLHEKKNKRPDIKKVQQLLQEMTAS

[2] = molecular target: T1, IRAK4; test: IRAK4 Degradation HiBiT Assay; details: HiBiT-tagged Jurkat cells, 4 hrs; for Dmax: Jurkat; for DC50: read-out: Cellular IRAK4 HiBiT: DC50
Target sequence in this assay (Q9NWZ3 whole entry): as the sequence (Q9NWZ3 whole entry, species assumed) above

[3] = read-out: Cellular IRAK4 HiBiT: Dmax, Table 5, multiple runs
[4] = read-out: Cellular IRAK4 HiBiT: Dmax, Table 4

SMILES | IC50 ([1]; Table 5, multiple runs) | Dmax [2, 3] | DC50 ([2]; Table 5, multiple runs) | IC50 ([1]; Table 4) | Dmax [2, 4] | DC50 ([2]; Table 4)
CNc1cc(-c2ccc3cc(C#N)cnn23)ncc1-c1nnc(C23CCC(NC(=O)CCCCCCCNc4ccc5c(c4)C(=O)N(C4CCC(=O)NC4=O)C5=O)(CC2)CC3)s1 (stereo not shown) [Example 107, N-(4-(5-(6-(3-cyanopyrrolo[1,2-b]pyridazin-7-yl)-4-(methylamino)pyridin-3-yl)-1,3,4-thiadiazol-2-yl)bicyclo[2.2.2]octan-1-yl)-8-((2-(2,6-dioxopiperidin-3-yl)-1,3-dioxoisoindolin-5-yl)amino)octanamide] | 2.6 nM | 44% | 99.7 nM | – | – | –
CNc1cc(-c2ccc3cc(C#N)cnn23)ncc1-c1nnc([C@H]2CC[C@@H](NC(=O)CN3CCN(c4ccc5c(c4)C(=O)N(C4CCC(=O)NC4=O)C5=O)CC3)CC2)s1 (stereo partly shown) [Example 126, N-((1s,4s)-4-(5-(6-(3-cyanopyrrolo[1,2-b]pyridazin-7-yl)-4-(methylamino)pyridin-3-yl)-1,3,4-thiadiazol-2-yl)cyclohexyl)-2-(4-(2-(2,6-dioxopiperidin-3-yl)-1,3-dioxoisoindolin-5-yl)piperazin-1-yl)acetamide] | 0.9 nM | 111% | 63.1 nM | – | – | –
CC(C)Nc1cc(-c2ccc3cc(C#N)cnn23)ncc1-c1nnc(N2CCN(CC3CCN(c4cccc5c4n(C)c(=O)n5C4CCC(=O)NC4=O)CC3)CC2)s1 (stereo not shown) [Example 32, 7-(5-(5-(4-((1-(1-(2,6-dioxopiperidin-3-yl)-3-methyl-2-oxo-2,3-dihydro-1H-benzo[d]imidazol-4-yl)piperidin-4-yl)methyl)piperazin-1-yl)-1,3,4-thiadiazol-2-yl)-4-(isopropylamino)pyridin-2-yl)pyrrolo[1,2-b]pyridazine-3-carbonitrile] | 2.5 nM | 37% | 153 nM | 2.3 nM | 37% | 152 nM
CNc1cc(-c2ccc3cc(C#N)cnn23)ncc1-c1nnc([C@H]2CC[C@@H](NC(=O)CCOCCOCCOCCNc3cccc4c3C(=O)N(C3CCC(=O)NC3=O)C4=O)CC2)s1 (stereo partly shown) [Example 117, N-((1s,4s)-4-(5-(6-(3-cyanopyrrolo[1,2-b]pyridazin-7-yl)-4-(methylamino)pyridin-3-yl)-1,3,4-thiadiazol-2-yl)cyclohexyl)-3-(2-(2-(2-((2-(2,6-dioxopiperidin-3-yl)-1,3-dioxoisoindolin-4-yl)amino)ethoxy)ethoxy)ethoxy)propanamide] | 1.2 nM | 20% | 27.1 nM | – | – | –
CNc1cc(-c2ccc3cc(C#N)cnn23)ncc1-c1nnc([C@H]2CC[C@H](NC(=O)COc3cc(-c4scnc4C)ccc3CNC(=O)[C@@H]3C[C@@H](O)CN3C(=O)[C@@H](NC(=O)C3(F)CC3)C(C)(C)C)CC2)s1 [Example 159, (2S,4R)—N-(2-(2-(((1r,4S)-4-(5-(6-(3-cyanopyrrolo[1,2-b]pyridazin-7-yl)-4-(methylamino)pyridin-3-yl)-1,3,4-thiadiazol-2-yl)cyclohexyl)amino)-2-oxoethoxy)-4-(4-methylthiazol-5-yl)benzyl)-1-((S)-2-(1-fluorocyclopropane-1-carboxamido)-3,3-dimethylbutanoyl)-4-hydroxypyrrolidine-2-carboxamide] | 2.1 nM | 116% | 111 nM | – | – | –
CNc1cc(-c2ccc3cc(C#N)cnn23)ncc1-c1nnc(N2CCN(C(=O)CN3CCN(c4ccc5c(c4)C(=O)N(C4CCC(=O)NC4=O)C5=O)CC3)CC2)s1 (stereo not shown) [Example 94, 7-(5-(5-(4-(2-(4-(2-(2,6-dioxopiperidin-3-yl)-1,3-dioxoisoindolin-5-yl)piperazin-1-yl)acetyl)piperazin-1-yl)-1,3,4-thiadiazol-2-yl)-4-(methylamino)pyridin-2-yl)pyrrolo[1,2-b]pyridazine-3-carbonitrile] | 0.6 nM | 113% | 321 nM | – | – | –
Cc1ncsc1-c1ccc(CNC(=O)[C@@H]2C[C@@H](O)CN2C(=O)[C@@H](NC(=O)C2(F)CC2)C(C)(C)C)c(OCCOCCOCCOCCOCCOCCC(=O)N2CCN(c3nnc(-c4cnc(-c5ccc6cc(C#N)cnn56)cc4NC(C)C)s3)CC2)c1 [Example 48, (2S,4R)—N-(2-((18-(4-(5-(6-(3-cyanopyrrolo[1,2-b]pyridazin-7-yl)-4-(isopropylamino)pyridin-3-yl)-1,3,4-thiadiazol-2-yl)piperazin-1-yl)-18-oxo-3,6,9,12,15-pentaoxaoctadecyl)oxy)-4-(4-methylthiazol-5-yl)benzyl)-1-((S)-2-(1-fluorocyclopropane-1-carboxamido)-3,3-dimethylbutanoyl)-4-hydroxypyrrolidine-2-carboxamide] | 4 nM | 119% | 691 nM | 4 nM | 119% | 691 nM
CNc1cc(-c2ccc3cc(C#N)cnn23)ncc1-c1nnc([C@H]2C[C@H](NC(=O)C[C@H](NC(=O)[C@@H]3C[C@@H](O)CN3C(=O)[C@@H](NC(=O)C3(F)CC3)C(C)(C)C)c3ccc(-c4scnc4C)cc3)C2)s1 [Example 183, (2S,4R)—N—((S)-3-(((1r,3S)-3-(5-(6-(3-cyanopyrrolo[1,2-b]pyridazin-7-yl)-4-(methylamino)pyridin-3-yl)-1,3,4-thiadiazol-2-yl)cyclobutyl)amino)-1-(4-(4-methylthiazol-5-yl)phenyl)-3-oxopropyl)-1-((S)-2-(1-fluorocyclopropane-1-carboxamido)-3,3-dimethylbutanoyl)-4-hydroxypyrrolidine-2-carboxamide] | 2.3 nM | 111% | 222 nM | – | – | –
CNc1cc(-c2ccc3cc(C#N)cnn23)ncc1-c1nnc(N2CCC(NC(=O)C3CCN(c4cccc5c4C(=O)N(C4CCC(=O)NC4=O)C5=O)CC3)CC2)s1 (stereo not shown) [Example 90, N-(1-(5-(6-(3-cyanopyrrolo[1,2-b]pyridazin-7-yl)-4-(methylamino)pyridin-3-yl)-1,3,4-thiadiazol-2-yl)piperidin-4-yl)-1-(2-(2,6-dioxopiperidin-3-yl)-1,3-dioxoisoindolin-4-yl)piperidine-4-carboxamide] | 0.8 nM | – | > 9980 nM | – | – | –
CC(C)Nc1cc(-c2ccc3cc(C#N)cnn23)ncc1-c1nnc(N2CCN(C(=O)CCOCCOCCOCCNc3cccc4c3C(=O)N(C3CCC(=O)NC3=O)C4=O)CC2)s1 (stereo not shown) [Example 11, 7-(5-(5-(4-(3-(2-(2-(2-((2-(2,6-dioxopiperidin-3-yl)-1,3-dioxoisoindolin-4-yl)amino)ethoxy)ethoxy)ethoxy)propanoyl)piperazin-1-yl)-1,3,4-thiadiazol-2-yl)-4-(isopropylamino)pyridin-2-yl)pyrrolo[1,2-b]pyridazine-3-carbonitrile] | 1.3 nM | 104% | 128 nM | 1.3 nM | 104% | 128 nM
CNc1cc(-c2ccc3cc(C#N)cnn23)ncc1-c1nnc(C23CCC(NC(=O)C4CCN(c5cccc6c5C(=O)N(C5CCC(=O)NC5=O)C6=O)CC4)(CC2)CC3)s1 (stereo not shown) [Example 136, N-(4-(5-(6-(3-cyanopyrrolo[1,2-b]pyridazin-7-yl)-4-(methylamino)pyridin-3-yl)-1,3,4-thiadiazol-2-yl)bicyclo[2.2.2]octan-1-yl)-1-(2-(2,6-dioxopiperidin-3-yl)-1,3-dioxoisoindolin-4-yl)piperidine-4-carboxamide] | – | 35% | 21.9 nM | – | – | –
